Test results reported in patent publication US12187717B2, “Compound and use thereof in treating autoimmune diseases” (PARENCHYMA BIOTECH INC., priority 2022, dated 2025).

What was measured:
[1] = system: DSS-induced inflammatory bowel disease; assay: DSS-induced inflammatory bowel disease model: colon mRNA expression (real-time PCR); format: in vivo, C57BL/6 mice
Description: On the 15th day of the experiment, the colon of the mouse was excised to prepare an mRNA sample. In order to extract mRNA, the colon tissue was ground with a homogenizer to acquire a homogeneous suspension. From the homogeneous suspension, mRNA was extracted by a phenol-chloroform sedimentation method using an easy-spin™ (DNA free) total RNA extraction kit (Intron biotechnology, Cat No. 17221). […] Herein, one (1) fold was set using the normal mouse colon as a control.
The real-time polymerase chain reaction was implemented under the conditions of 45 cycles at an annealing temperature of 58° C. and the following primer sequences were used.
The therapeutic effects of Compound 6 and Comparative Example 1 on inflammatory bowel disease were compared. Inflammatory bowel disease was induced in C57BL/6 mice in the same manner as in Example 4, and after oral administration of 10 mg/kg of Compound 6 and Comparative Example 1 to mice, the expression levels of IL-6 and S100a9 mRNA were confirmed in colon tissues.

Th17 cells = assay: IL-17A production of Th17 cells (flex set, flow cytometry); format: cell-based, C57BL/6 mice; conditions: 1.0 μM, 2.5 μM and 5 μM, 3 days, compared to Comparative Example 1
Experimental: The spleen of C57BL/6 mice (8 to 12 weeks old, female) was excised, pulverized by adding IMDM medium, and then passed through a 40 μm cell strainer (BD Falcon), thereby obtaining a single cell suspension. The single cell suspension was centrifuged (1200 rpm, 5 minutes), and after discarding the supematant, 1 ml of ACK lysis buffer was added, followed by stirring for 1 minute and then washing the same with RPMI medium. After the single cell suspension was centrifuged, T-cells were separated using a Mouse CD4 Naive T cell Enrichment Kit (Invitrogen). The separated T-cells were prepared by resuspending them in RPMI-fetal bovine serum (FBS) 10%+2-ME (mercaptoethanol) medium at 1×10^6/ml. For T-cell activation, 5 μg/ml anti-CD3 (eBioscience™) was dispensed by 100 μl onto a 96-well plate, reacted in a cell incubator (37° C., 5% CO2 incubator) for 4 hours, and washed with phosphate buffered saline to prepare the plate. The T-cells were dispensed by 200 μl onto the prepared plate, and each well was treated with 2 μg/ml of anti-CD28 (eBioscience™), 3 ng/ml of TGFβ-1 (R&D systems), 10 ng/ml of IL-2 (R&D systems), 5 μg/ml of anti-mouse IFN-γ (Bio X cell), and 5 μg/ml of anti-mouse IL-4 (Bio X cell). […]

CYP1A2 = biological target: T1, CYP1A2 (Homo sapiens, UniProt P05177); assay: CYP isoenzyme activity; format: in vitro ADME; conditions: 10 μM
T1 sequence (P05177 1-516): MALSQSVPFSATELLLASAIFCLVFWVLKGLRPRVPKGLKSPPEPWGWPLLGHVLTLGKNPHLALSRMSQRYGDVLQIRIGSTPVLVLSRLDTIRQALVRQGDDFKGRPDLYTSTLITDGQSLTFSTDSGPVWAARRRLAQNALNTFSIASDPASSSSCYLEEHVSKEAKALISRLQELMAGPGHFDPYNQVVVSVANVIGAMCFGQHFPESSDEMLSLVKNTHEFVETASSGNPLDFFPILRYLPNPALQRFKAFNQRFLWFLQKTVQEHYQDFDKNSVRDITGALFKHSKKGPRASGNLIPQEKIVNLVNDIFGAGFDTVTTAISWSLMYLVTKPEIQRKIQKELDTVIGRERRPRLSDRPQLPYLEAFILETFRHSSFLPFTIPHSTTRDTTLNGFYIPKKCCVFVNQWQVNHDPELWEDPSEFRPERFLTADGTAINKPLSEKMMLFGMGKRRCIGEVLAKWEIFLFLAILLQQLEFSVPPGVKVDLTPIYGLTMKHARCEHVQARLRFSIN

[2] = 10 mg/kg oral daily, 15th day, compared to solvent control
[3] = 10 mg/kg oral, compared to Comparative Example 1

O=C(Cc1c[nH]c2ccc(Cl)cc12)Nc1nc2ccc(N3CCOCC3)cc2s1 [Compound 6, 2-(5-chloro-1H-indol-3-yl)-N-(6-morpholinobenzo[d]thiazol-2-yl)acetamide]
Foxp3 expression level in colon lesions [1, 2]: significantly increased | IL-1β expression level in colon lesions [1, 2]: significantly reduced | IL-6 expression level in colon lesions [1, 2]: significantly reduced | IL-10 expression level in colon lesions [1, 2]: significantly increased | IL-17A expression level in colon lesions [1, 2]: significantly reduced | Muc2 expression level in colon lesions [1, 2]: significantly increased | Reg3b expression level in colon lesions [1, 2]: significantly increased | S100a8 expression level in colon lesions [1, 2]: significantly reduced | S100a9 expression level in colon lesions [1, 2]: significantly reduced | TNF-α expression level in colon lesions [1, 2]: significantly reduced | IL-6 mRNA expression level in colon tissues [1, 3]: significantly decreased | S100a9 mRNA expression level in colon tissues [1, 3]: significantly decreased | IL-17A production of Th17 cells (Th17 cells): significantly decreased | CYP1A2 activity (CYP1A2): 88.2 % of Control Activity
